According to patent US7270820B2, “CD4+ T-lymphocyte-specific hepatitis C virus epitopes” (Immusystems GmbH, priority 2002, dated 2007):

These sequences were tested on fresh peripheral blood mononuclear cells (PBMC) / HCV-specific CD4+ T-lymphocytes (assay: Lymphocyte proliferation assay (3H-thymidine incorporation) of PBMC stimulated with HCV peptides). Settings: of 16 independent tests.
Type: cell-based, human (patients with acute hepatitis C)
Text: To solve the task, a unique patient collective was identified, namely patients with acute hepatitis C who reach a lasting or at least temporary virus elimination in over 50% of cases. In order to test all possible CD4+ T-cell epitopes, the whole virus was covered with overlapping synthetic peptides from 15 to 20 amino acids long. A standardised lymphocyte proliferation assay was used as the test system. In order to determine both the degree of conservation between various virus sub-types and also the binding promiscuity as regards the relevant genetic background of the patients, a formula was defined based on the frequency of detection of an epitope and the strength of the immune reaction in question.
The stimulation index (SI) is normally calculated from the raw data of a proliferation assay and represents the multiplication factor of the measured sample in comparison with the control. An SI of 3 is regarded as significant.
A special patient collective was chosen and examined for HCV specific CD4+ T-cell epitopes relevant for the healing of the disease. The patient collective, namely patients with acute hepatitis C, is difficult to identify, since, on the one hand, they occur with a frequency of approx. 1:100,000 in the German population and, on the other hand, only T-lymphocytes were tested in the acute phase of the disease. This means a considerable limitation in the number of usable samples. Finally, within this patient collective, only patients were considered who were able to clear the virus spontaneously or to control it temporarily (this is only approx. 60% of the patients with acute hepatitis C), since only here has the immune system successfully taken action against the virus.
As the test system, the so-called “proliferation assay” was carried out according to the following protocol: After density gradient centrifugation on Ficoll gradients of heparinised blood, the fresh peripheral blood mononuclear cells (PBMC) were isolated and suspended in a culture medium (RPMI1640, Gibco). 50 μl of this cell suspension (concentration of 1×10^6 cells per ml) were placed on sterile 96-well culture plates. The cells were stimulated by the addition of the peptides. The final concentration of the peptides was 10 μg/ml. The cell culture plates were cultivated over 5 days at 37° C. and 5% CO2, then mixed with ^3H-thymidine and the incorporation of the radioactive ^3H was measured as a measure of the cell stimulation.
In our studies, only peptide reactions were regarded as significant whose stimulation index (SI) was greater than 3 (3× higher compared with the controls, or the irrelevant peptides).
The impact factor (IF) is based on a points system which not only uses the frequency of relevant reactions, i.e. stimulation index (SI) greater than 3, as normal, but also takes into account the strength of these reactions.
[formula] where • n1 is the sum of the reactions with 3<SI<6, • n2 is the sum of the reactions with SI≧6 and • m is the number of tests against the peptide in question, whereby m≧15.

Question: Which results are given for TITQLLKRLHQWINEDCSTP [EP007]?
Answer: n1, sum of the reactions with 3<SI<6: 4; n2, sum of the reactions with SI≧6: 2

Same assay, conditions: peptide 10 μg/ml, 5 days; calculated from n1 (reactions with 3<SI<6), n2 (SI≧6) and m tests, m≧15

Question: Which “IF (impact factor)” value does the source give for “ARSLTPCTCGSSDLY (Hepatitis C virus) [EP002]” here?
Answer: The value was 27.6.

Question: How did the “IF (impact factor)” value turn out when CPCQVPAPEFFTEVDGVRLH [EP011] was run?
Answer: The value was 23.3.

Question: Which “IF (impact factor)” value does the source give for CSGSWLRDVWDWICTVLTDF [EP008] here?
Answer: The value was 23.3.

Question: Which “IF (impact factor)” value does the source give for DVVCCSMSYTWTGALITPCA [EP017] here?
Answer: Its value is 23.3.

Question: With EVTRVGDFHYVTGMTTDNVK [EP010] as the sequence, how does the “IF (impact factor)” value read?
Answer: Its value is 21.9.

Question: How did the “IF (impact factor)” value turn out when FTEVDGVRLHRYAPACKPLL [EP012] was run?
Answer: Its value is 28.1.

Question: For GAQITGHVKNGSMRIVGPKT [EP009], which “IF (impact factor)” value is on record?
Answer: Its value is 23.3.

Question: How did the “IF (impact factor)” value turn out when “GPRLGVRATRKTSER (Hepatitis C virus) [EP001]” was run?
Answer: The value was 24.0.

Question: How did the “IF (impact factor)” value turn out when “MWKCLIRLKPTLHGP (Hepatitis C virus) [EP004]” was run?
Answer: Its value is 24.1.

Question: Which “IF (impact factor)” value does the source give for PLLESWKDPDYVPPVVHGCP [EP016] here?
Answer: Its value is 26.7.

Question: “REVSVAAEILRKSRKFPPAM (Hepatitis C virus) [EP015]” was tested. Which “IF (impact factor)” value did it give?
Answer: The value was 25.0.

Question: With “SSDLYLVTRHADVIP (Hepatitis C virus) [EP003]” as the sequence, how does the “IF (impact factor)” value read?
Answer: The value was 23.2.

Question: Which “IF (impact factor)” value does the source give for SSSASQLSAPSLKATCTTHH [EP014] here?
Answer: Its value is 23.3.

Question: Which “IF (impact factor)” value does the source give for THYVPESDAAARVTQILSSL [EP006] here?
Answer: The value was 26.7.

Question: With TITQLLKRLHQWINEDCSTP [EP007] as the sequence, how does the “IF (impact factor)” value read?
Answer: The value was 43.8.

Question: Which “IF (impact factor)” value does the source give for TSMLTDPSHITAETAKRRLA [EP013] here?
Answer: The value was 26.7.

Question: Which “IF (impact factor)” value does the source give for “VLVDILAGYGAGVAG (Hepatitis C virus) [EP005]” here?
Answer: The value was 24.1.

Same assay, conditions: worked example in text, m=16 tests

Question: For TITQLLKRLHQWINEDCSTP [EP007], which impact factor is on record?
Answer: The impact factor was 43.75.
